Test results: patent publication US11116764B2, “Combination of pure 5-HT6 receptor antagonists with NMDA receptor antagonist” (SUVEN LIFE SCIENCES LIMITED, priority 2016, dated 2021)
Where a name gives a salt, the structure may show the parent alone.

What was measured:
[1] = biological target: human recombinant 5-HT2A receptor (Homo sapiens (Human), UniProt P28223); experiment: Determination of Ki value at 5-HT2A receptor ([3H]-Ketanserine radioligand binding); settings: [3H]-Ketanserine 1.75 nM, average of three independent experiments
Experimental: Determination of Ki Value at 5-HT2A Receptor
Compound was tested according to the following procedures.
Receptor source: Recombinant mammalian cells
Radioligand: [^3H]-Ketanserine (47.3 Ci/mmol)
Final ligand concentration—[1.75 nM]
Non-Specific Ligand: 0.1 mM 1-Naphthylpiperazine (1-NP)
Reference compound: 1-Naphthylpiperazine (1-NP)
Positive control: 1-Naphthylpiperazine (1-NP)
Incubation conditions: Reactions were carried out in 67 mM Tris-HCl (pH 7.4) for 4 hours at 37° C. The reaction was terminated by rapid vacuum filtration onto the glass fiber filters. Radioactivity trapped onto the filters was determined and compared to the control values in order to ascertain any interactions of the test compound(s) with the cloned serotonin 5-HT2A binding site. • Reference: Methods in Molecular Biology, 2002, 190, 31-49
Compounds 1, 2 and 3 bind weakly to 5-HT2A receptor when tested by the in-vitro radioligand binding technique on human recombinant 5-HT2A receptor. The Ki values tabulated below are average of three independent experiments.

[2] = system: Male Wistar rats; experiment: Evaluation of theta modulation in dorsal hippocampus of anesthetized male Wistar rats; assay type: in vivo, rat; settings: memantine 1 mg/kg i.v. alone or 30 min after compound 1 1 mg/kg i.v.
Source text: […]. Academic Press, New York Results:

[3] = system: Male Wistar rats; experiment: Object recognition task model; assay type: in vivo, rat; settings: choice trial T2, 24 hours after T1; compared to the vehicle treatment
Experimental: Four animals were housed in each cage. […] Water was provided ad libitum throughout the experiment. […] Rats received vehicle or test compounds or memantine or test compound and memantine, before familiar (T1) and choice (T2) trials. […] During the T1 and T2 trial, explorations of each object (defined as sniffing, licking, chewing or having moving vibrissae whilst directing the nose towards the object at a distance of less than 1 cm) were recorded using stopwatch.

[4] = system: Male Wistar rats; experiment: Evaluation of acetylcholine modulation in ventral hippocampus of male Wistar rats (microdialysis); assay type: in vivo, rat; settings: memantine 1 mg/kg s.c. alone or with compound 1 3 mg/kg p.o.; combination compared to memantine alone
Source text: Evaluation of Acetylcholine Modulation in Ventral Hippocampus of Male Wistar Rats Experimental Procedure:
Male Wistar rats (240-300 g body weight) were stereotaxically implanted with a microdialysis guide cannula in ventral hippocampus (AP: −5.2 mm, ML: +5.0 mm, DV: −3.8 mm) under isoflurane anesthesia. Co-ordinates were taken according to atlas for the rat brain (Paxinos and Watson 2004) with reference points taken from bregma and vertical from the skull. The rats were allowed to recover individually for four-five days in a round bottom Plexiglas bowl with free access to feed and water.
After surgical recovery of 4-5 days, male Wistar rats were connected to dual quartz lined two-channel liquid swivel (Instech, UK) on a counter balance lever arm, which allowed unrestricted movements of the animal. […]
Acetylcholine in dialysate was quantified using LC-MS/MS method in the calibration range of 0.099 nmol/L-70.171 nmol/L.
All microdialysis data for acetylcholine was plotted as percent change from mean dialysate basal concentrations with 100% defined as the average of five pre-dose values. […] Area under the curve (AUC) values for percent change in acetylcholine levels were calculated and the statistical significance between the mean AUC value were compared against memantine treatment using one-way ANOVA followed by Dunnett's test. […]

COc1ccc2c(c1)c(CN1CCN(C)CC1)cn2S(=O)(=O)c1ccccc1Br [Compound 1, 1-[(2-Bromophenyl)sulfonyl]-5-methoxy-3-[(4-methyl-1-piperazinyl)methyl]-1H-indole dimesylate monohydrate]
Ki [1]: 2510 ± 377 nM

COc1ccc2c(c1)c(CN1CCN(C)CC1)cn2S(=O)(=O)c1ccc(F)cc1 [Compound 2, 1-[(4-Fluorophenyl)sulfonyl]-5-methoxy-3-[(4-methyl-1-piperazinyl)methyl]-1H-indole dihydrochloride]
Ki [1]: > 10000 nM

COc1ccc2c(c1)c(CN1CCN(C)CC1)cn2S(=O)(=O)c1ccc(C(C)C)cc1 [Compound 3, 1-[(4-Isopropylphenyl)sulfonyl]-5-methoxy-3-[(4-methyl-1-piperazinyl)methyl]-1H-indole dihydrochloride]
Ki [1]: 926 ± 317 nM

CC12CC3CC(C)(C1)CC(N)(C3)C2 [memantine]
change in hippocampal theta power [2]: no change
discriminative index [3]: No significant increase
change in hippocampal acetylcholine levels [4]: moderate change
